# Results: US7067524B2, “Substituted phenyl naphthalenes as estrogenic agents” (Wyeth, priority 2001, dated 2006)
# Where two headings read alike, the source gives them in different places.
# What was measured:
# casein kinase II mRNA = experiment: Rat mammotrophic assay (mammary end bud test procedure); format: in vivo; settings: ovariectomized rats, with progesterone 30 mg/kg
# [1] = tested on: Progesterone receptor mRNA; experiment: Progesterone receptor mRNA regulation in the preoptic area of the rat brain; format: in vivo
# [2] = tested on: Sexually immature 129 SvE mice; experiment: Mouse uterotrophic test procedure (Procedure 2); format: in vivo; settings: 50 mg/kg/day sc, days 22-25
# Lewis rats [3] = experiment: Lewis rat adjuvant-induced arthritis, inhibition protocol; format: in vivo
# [4] = tested on: Sexually immature Sprague-Dawley rats; experiment: Rat uterotrophic test procedure (Procedure 1); format: in vivo
# Lewis rats [5] = experiment: Lewis rat adjuvant-induced arthritis, treatment protocol; format: in vivo; settings: for Joint inflammation score: 10 mg/kg sc daily from Day 8 after adjuvant
# HLA-B27 rats [6] = settings: for Joint inflammation score: 10 mg/kg orally once per day
# HLA-B27 rats [7] = settings: for Stool score (group's average score): 2=soft stool, 1=normal stool
# [8] = tested on: metallothionein-II mRNA in Saos-2 cells; experiment: Regulation of metallothionein-II mRNA in Saos-2 cells; format: cell-based; parameters: unit not given here; settings: column head not given
# [9] = Mankin scores, tarsal joints, 10 mg/kg, mean ± SD
# [10] = synovitis histology, tarsal joints, 10 mg/kg, mean ± SD
# [11] = joint histology, 10 mg/kg orally for 46 days
# [12] = colon histological score, 10 mg/kg orally for 46 days
smiles,measurement,setting,value
"C[C@]12CC[C@@H]3c4ccc(O)cc4CC[C@H]3[C@@H]1CC[C@@H]2O [17β-estradiol, reference compound]",Casein kinase II mRNA/18S rRNA (mean ± SEM),casein kinase II mRNA; 0.1 mg/kg sc 6 days,39.0 ± 5.4
same,Progesterone receptor mRNA (arbitrary units; mean ± stdev),[1]; 30 μg/kg,557.1 ± 80.6 arbitrary units
same,mean uterine weight (mg) ± SEM,[2],45.3 ± 1.9 mg
"N#Cc1cc(-c2ccc(O)c(F)c2)cc2ccc(O)cc12 [Example 1av, 3-(3-Fluoro-4-hydroxyphenyl)-7-hydroxy-1-naphthonitrile]",Casein kinase II mRNA/18S rRNA (mean ± SEM),casein kinase II mRNA; 20 mg/kg sc 6 days,1.06 ± 0.17
same,Joint inflammation score,"Lewis rats [3]; sc daily from Day 1, Day 1, maximal score 12",0.00
same,Joint inflammation score,"Lewis rats [3]; sc daily from Day 1, Day 2, maximal score 12",0.00
same,Joint inflammation score,"Lewis rats [3]; sc daily from Day 1, Day 3, maximal score 12",2.66
same,Joint inflammation score,"Lewis rats [3]; sc daily from Day 1, Day 4, maximal score 12",1.83
same,Joint inflammation score,"Lewis rats [3]; sc daily from Day 1, Day 5, maximal score 12",2.66
same,Joint inflammation score,"Lewis rats [3]; sc daily from Day 1, Day 6, maximal score 12",2.16
same,Joint inflammation score,"Lewis rats [3]; sc daily from Day 1, Day 7, maximal score 12",2.00
same,Joint inflammation score,"Lewis rats [3]; sc daily from Day 1, Day 8, maximal score 12",1.66
same,Joint inflammation score,"Lewis rats [3]; sc daily from Day 1, Day 9, maximal score 12",2.00
same,Joint inflammation score,"Lewis rats [3]; sc daily from Day 1, Day 10, maximal score 12",2.00
same,Joint inflammation score,"Lewis rats [3]; sc daily from Day 1, Day 11, maximal score 12",1.66
same,Joint inflammation score,"Lewis rats [3]; sc daily from Day 1, Day 12, maximal score 12",1.66
same,Joint inflammation score,"Lewis rats [3]; sc daily from Day 1, Day 13, maximal score 12",2.16
same,Joint inflammation score,"Lewis rats [3]; sc daily from Day 1, Day 14, maximal score 12",2.00
same,Joint inflammation score,"Lewis rats [3]; sc daily from Day 1, Day 15, maximal score 12",2.00
same,Joint inflammation score,"Lewis rats [3]; sc daily from Day 1, Day 16, maximal score 12",1.00
same,Joint inflammation score,"Lewis rats [3]; sc daily from Day 1, Day 17, maximal score 12",1.33
same,mean uterine weight (mg) ± SEM,[4]; 2 mg/rat/day coadministered with 17α-ethinyl-17β-estradiol 0.06 μg/rat/day (antagonist mode),81.9 ± 4.2 mg
same,mean uterine weight (mg) ± SEM,"[4]; 2 mg/rat/day sc, days 19-21",23.3 ± 1.3 mg
same,Joint inflammation score,"Lewis rats [5]; Day 1, maximal score 12",11.33
same,Joint inflammation score,"Lewis rats [5]; Day 2, maximal score 12",10.83
same,Joint inflammation score,"Lewis rats [5]; Day 3, maximal score 12",9.33
same,Joint inflammation score,"Lewis rats [5]; Day 4, maximal score 12",8.00
same,Joint inflammation score,"Lewis rats [5]; Day 5, maximal score 12",5.83
same,Joint inflammation score,"Lewis rats [5]; Day 6, maximal score 12",3.33
same,Joint inflammation score,"Lewis rats [5]; Day 7, maximal score 12",3.00
same,Joint inflammation score,"Lewis rats [5]; Day 8, maximal score 12",2.50
same,Joint inflammation score,"Lewis rats [5]; Day 9, maximal score 12",2.50
same,Joint inflammation score,"Lewis rats [5]; Day 10, maximal score 12",2.50
same,Joint inflammation score,"Lewis rats [5]; Day 11, maximal score 12",2.50
same,Joint inflammation score,"Lewis rats [5]; Day 12, maximal score 12",2.50
same,Joint inflammation score,"Lewis rats [5]; Day 13, maximal score 12",2.50
same,Joint inflammation score,"Lewis rats [5]; Day 14, maximal score 12",2.50
same,Joint inflammation score,"Lewis rats [5]; Day 15, maximal score 12",2.00
same,Joint inflammation score,"Lewis rats [5]; Day 16, maximal score 12",1.33
same,Joint inflammation score,"Lewis rats [5]; Day 17, maximal score 12",1.00
same,Cartilage Cells (0–3),Lewis rats [5]; [9],0.75 ± 0.42
same,Cartilage Structure (0–6),Lewis rats [5]; [9],1.83 ± 0.68
same,Saffranin-O/Fast Green Staining (0–4),Lewis rats [5]; [9],1.25 ± 0.52
same,Tidemark Integrity (0–1),Lewis rats [5]; [9],0
same,Total Mankin Score (0–14),Lewis rats [5]; [9],3.83 ± 1.21
same,Fibroplasia (0–3),Lewis rats [5]; [10],0.75 ± 0.42
same,Inflammatory Cells (0–3),Lewis rats [5]; [10],1.25 ± 0.42
same,Pannus (0–1),Lewis rats [5]; [10],0.33 ± 0.61
same,Synovial Structure (0–3),Lewis rats [5]; [10],1.58 ± 0.38
same,Total Synovitis Score (0–10),Lewis rats [5]; [10],3.83 ± 0.93
same,Progesterone receptor mRNA (arbitrary units; mean ± stdev),[1]; 10 mg/kg,33.7 ± 20.6 arbitrary units
same,Joint inflammation score,HLA-B27 rats [6]; Day 29,0.5
same,Joint inflammation score,HLA-B27 rats [6]; Day 30,0.5
same,Joint inflammation score,HLA-B27 rats [6]; Day 31,0.5
same,Joint inflammation score,HLA-B27 rats [6]; Day 32,1
same,Joint inflammation score,HLA-B27 rats [6]; Day 33,1.75
same,Joint inflammation score,HLA-B27 rats [6]; Day 34,1.5
same,Joint inflammation score,HLA-B27 rats [6]; Day 35,1
same,Joint inflammation score,HLA-B27 rats [6]; Day 36,1.75
same,Joint inflammation score,HLA-B27 rats [6]; Day 37,1.75
same,Joint inflammation score,HLA-B27 rats [6]; Day 38,1.5
same,Joint inflammation score,HLA-B27 rats [6]; Day 39,0.75
same,Joint inflammation score,HLA-B27 rats [6]; Day 40,0.75
same,Joint inflammation score,HLA-B27 rats [6]; Day 41,0.5
same,Joint inflammation score,HLA-B27 rats [6]; Day 42,1.5
same,Joint inflammation score,HLA-B27 rats [6]; Day 43,1.25
same,Joint inflammation score,HLA-B27 rats [6]; Day 44,1.75
same,Joint inflammation score,HLA-B27 rats [6]; Day 45,1.25
same,Joint inflammation score,HLA-B27 rats [6]; Day 46,0.75
same,Mankin score (mean ± SD),HLA-B27 rats [6]; [11],4.5 ± 1.8
same,Synovitis score (mean ± SD),HLA-B27 rats [6]; [11],5.0 ± 2.5
same,Time until stool character normalized,HLA-B27 rats [7]; 10 mg/kg orally daily,≤ 21 days
same,Stool score (group's average score),"HLA-B27 rats [7]; 10 mg/kg orally daily, Day 1, 3=diarrhea",2.75
same,Stool score (group's average score),"HLA-B27 rats [7]; 10 mg/kg orally daily, Day 2, 3=diarrhea",2.5
same,Stool score (group's average score),"HLA-B27 rats [7]; 10 mg/kg orally daily, Day 3, 3=diarrhea",2.25
same,Stool score (group's average score),"HLA-B27 rats [7]; 10 mg/kg orally daily, Day 4, 3=diarrhea",2.5
same,Stool score (group's average score),"HLA-B27 rats [7]; 10 mg/kg orally daily, Day 5, 3=diarrhea",2.25
same,Stool score (group's average score),"HLA-B27 rats [7]; 10 mg/kg orally daily, Day 6, 3=diarrhea",2.5
same,Stool score (group's average score),"HLA-B27 rats [7]; 10 mg/kg orally daily, Day 7, 3=diarrhea",2.5
same,Stool score (group's average score),"HLA-B27 rats [7]; 10 mg/kg orally daily, Day 8, 3=diarrhea",2
same,Stool score (group's average score),"HLA-B27 rats [7]; 10 mg/kg orally daily, Day 9, 3=diarrhea",2
same,Stool score (group's average score),"HLA-B27 rats [7]; 10 mg/kg orally daily, Day 10, 3=diarrhea",1.5
same,Stool score (group's average score),"HLA-B27 rats [7]; 10 mg/kg orally daily, Day 11, 3=diarrhea",1.5
same,Stool score (group's average score),"HLA-B27 rats [7]; 10 mg/kg orally daily, Day 12, 3=diarrhea",1.5
same,Stool score (group's average score),"HLA-B27 rats [7]; 10 mg/kg orally daily, Day 13, 3=diarrhea",1.75
same,Stool score (group's average score),"HLA-B27 rats [7]; 10 mg/kg orally daily, Day 14, 3=diarrhea",1.75
same,Stool score (group's average score),"HLA-B27 rats [7]; 10 mg/kg orally daily, Day 15, 3=diarrhea",1.5
same,Stool score (group's average score),"HLA-B27 rats [7]; 10 mg/kg orally daily, Day 16, 3=diarrhea",1.5
same,Stool score (group's average score),"HLA-B27 rats [7]; 10 mg/kg orally daily, Day 17, 3=diarrhea",1.25
same,Stool score (group's average score),"HLA-B27 rats [7]; 10 mg/kg orally daily, Day 18, 3=diarrhea",1.25
same,Stool score (group's average score),"HLA-B27 rats [7]; 10 mg/kg orally daily, Day 19, 3=diarrhea",1.25
same,Stool score (group's average score),"HLA-B27 rats [7]; 10 mg/kg orally daily, Day 20, 3=diarrhea",1.25
same,Stool score (group's average score),"HLA-B27 rats [7]; 10 mg/kg orally daily, Day 21, 3=diarrhea",1.25
same,Stool score (group's average score),"HLA-B27 rats [7]; 10 mg/kg orally daily, Day 22, 3=diarrhea",1
same,Stool score (group's average score),"HLA-B27 rats [7]; 10 mg/kg orally daily, Day 23, 3=diarrhea",1
same,Stool score (group's average score),"HLA-B27 rats [7]; 10 mg/kg orally daily, Day 24, 3=diarrhea",1
same,Stool score (group's average score),"HLA-B27 rats [7]; 10 mg/kg orally daily, Day 25, 3=diarrhea",1
same,Fibrosis (0–2),HLA-B27 rats [7]; [12],0.07 ± 0.13
same,Inflammation (0–3),HLA-B27 rats [7]; [12],1.13 ± 0.43
same,Lesion depth (0–2),HLA-B27 rats [7]; [12],0.38 ± 0.43
same,Total score,HLA-B27 rats [7]; [12],2.00 ± 1.14
same,Ulceration (0–2),HLA-B27 rats [7]; [12],0.44 ± 0.43
same,mean uterine weight (mg) ± SEM,[2],12.6 ± 0.8 mg
"Oc1ccc(-c2ccc3cc(O)ccc3c2)cc1 [Example 1e, 6-(4-Hydroxyphenyl)-2-naphthol]",Regulation of metallothionein-II mRNA,[8],17.0
"Oc1ccc2cc(-c3ccc(O)c(Cl)c3)ccc2c1 [Example 1l, 6-(3-Chloro-4-hydroxyphenol)-2-naphthol]",Regulation of metallothionein-II mRNA,[8],5.5
"Oc1ccc(-c2ccc3c(Br)c(O)ccc3c2)cc1 [Example 1o, 1-Bromo-6-(4-hydroxyphenyl)-2-naphthol]",Regulation of metallothionein-II mRNA,[8],5.7
"Oc1ccc(-c2ccc3c(Cl)c(O)ccc3c2)cc1 [Example 1p, 1-Chloro-6-(4-hydroxyphenyl)-2-naphthol]",Regulation of metallothionein-II mRNA,[8],6.0
"N#Cc1c(O)ccc2cc(-c3ccc(O)cc3)ccc12 [Example 1s, 2-Hydroxy-6-(4-hydroxyphenyl)-1-naphthonitrile]",Regulation of metallothionein-II mRNA,[8],4.9
